Data taken from patent US20100029615A1, “BENZIMIDAZOLE DERIVATIVES” (priority 2006, published 2010).
Where two headings read alike, the source gives them in different places.

Target: T1, SMO (Mus musculus, UniProt P56726)
T1 construct: endogenous in cells; host or cells: C3H10T1/2 (ATCC #CCL-226)
Assay: Smoothened (SMO)/Sonic Hedgehog (SHh) Transient Transcriptional Activation Assay (Gli-luciferase reporter in C3H10T1/2 cells)
Assay type: cell-based, murine
Conditions: SHh 250 ng/ml, 20 hrs
Procedure: As noted above, the compounds of the invention are useful as inhibitors of SMO. Methods for determining the in vitro activity of these compounds are described below: Smoothened (SMO)/Sonic Hedgehog (SHh) Transient Transcriptional Activation Assay
On Day 1,2×10^6 C3H10T1/2 cells (ATCC #CCL-226) were split and seeded in 12 mls of growth medium Basal Medium Eagle (BME, Invitrogen #21010-046) supplemented with 2 mM L-glutamine (Invitrogen #25030-081), 0.1 units/ml penicillin and 0.1 ug/ml streptomycin (Invitrogen #15140-122), and 10% Fetal Bovine Serum (FBS, Invitrogen #16140-071) in a T-75 flask (Costar #3376). They were allowed to attach for 4 hours at 37° C., 5% CO2. The cells were then transfected using Fugene 6 (Roch #11 814 443 001) in the following reaction: 48 ul Fugene 6 and 745 ul Opti-MEM (Invitrogen #31985-070) were mixed and allowed to sit at room temperature for 5 minutes. 8 ug of pGL4.14/mGli(CS) DNA (10× murine Gli response elements and minimal CS promoter) and 0.5 ug of pEGFP DNA (Clontech) were added, gently mixed and incubated at room temperature for 20 minutes. This entire transfection mix was then added to the T-75 flask containing the cells. The cells were incubated at 37 °C, 5% C02 for 18-24 hrs.
On Day 2, the transfected cells were trypsinized and seeded into white 96 well plates (Costar #3917) in 100ul/well of growth medium at a concentration of 20,000 cells/well. The cells were allowed to recover for 4 hrs before adding serum starvation medium Dulbecco's Modified Eagle Medium (DMEM, Invitrogen #21063-029) supplemented with 2 mM L-glutamine, 0.1 units/ml penicillin and 0.1 ug/ml streptomycin, and 0.5% Calf Serum (CS, Invitrogen #26170-043). The growth media was aspirated off, and the cells were rinsed with 100 ul of starvation media. 95 ul of starvation media was then added to each well. The cells were incubated for 20 hrs at 37 °C, 5% C02.
On Day 3, cells were dosed with test compounds at a final concentration ranging from 2 uM to 2 nM. Immediately after dosing cells with compounds, recombinant human sonic hedgehog (SHh, R&D Systems #1845-SH) was add to a final concentration of 250 ng/ml. A 25 ug vial of SHh was reconstituted with 250 ul PBS/0.1% BSA to give a 100 ng/ul working stock. This working stock was then diluted 1:20 in starvation media. The transfected cells were incubated with compounds and SHh for 20 hrs at 37 °C, 5% C02.
Luciferase assays were conducted on Day 4 using Dual-Glo Luciferase assay system (Promega #E2940) according to Promega's protocol. Briefly, Dual-Glo luciferase reagent was made up and 100 uls were added to each well of the 96 well plate containing media. Plates were shaken at room temperature for 10 minutes, and then read on TopCount (Perkin-Elmer). The luminescence was recorded.

[1] = C3H 10T1/2, 2 uM test compound, read-out: SMO % inhibition at 2 uM
[2] = C3H 10T1/2, 2 μM test compound, read-out: SMO CELL % INHIBITION @ 2 μM

T1 sequence (P56726 33-793): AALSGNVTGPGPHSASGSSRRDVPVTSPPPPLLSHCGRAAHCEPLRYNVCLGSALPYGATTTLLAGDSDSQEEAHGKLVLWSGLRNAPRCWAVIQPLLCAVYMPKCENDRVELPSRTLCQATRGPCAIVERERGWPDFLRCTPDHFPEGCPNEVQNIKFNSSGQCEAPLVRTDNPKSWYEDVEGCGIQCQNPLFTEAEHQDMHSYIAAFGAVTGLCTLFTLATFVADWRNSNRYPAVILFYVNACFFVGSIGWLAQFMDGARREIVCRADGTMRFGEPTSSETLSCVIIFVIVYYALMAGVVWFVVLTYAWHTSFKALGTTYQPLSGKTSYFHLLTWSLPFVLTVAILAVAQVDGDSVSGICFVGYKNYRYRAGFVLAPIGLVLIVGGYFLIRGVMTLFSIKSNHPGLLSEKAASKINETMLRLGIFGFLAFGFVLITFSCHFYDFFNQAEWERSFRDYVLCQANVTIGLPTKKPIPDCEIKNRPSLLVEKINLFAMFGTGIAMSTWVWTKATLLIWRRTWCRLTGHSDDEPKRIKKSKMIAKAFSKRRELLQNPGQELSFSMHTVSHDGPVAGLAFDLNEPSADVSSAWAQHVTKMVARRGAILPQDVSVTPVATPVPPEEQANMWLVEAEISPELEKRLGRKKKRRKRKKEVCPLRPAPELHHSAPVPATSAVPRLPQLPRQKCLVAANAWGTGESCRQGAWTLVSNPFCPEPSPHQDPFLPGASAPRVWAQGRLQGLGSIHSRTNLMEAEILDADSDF

SMILES	inhibition at 2 µM [1] [%]	further results
COc1cc(OC)cc(C(=O)NC2CCCC(c3nc4ccccc4n3CCO)C2)c1 (racemic) [Example 13, N-(3-(1-(2-Hydroxyethyl)-1H-benzo[d]imidazol-2-yl)cyclohexyl)-3,5-dimethoxybenzamide (cis-isomer)]	98	–
COc1cc(OC)cc(C(=O)NC2CCCC(c3nc4cc(C(=O)N(C)C)ccc4[nH]3)C2)c1 (single isomer, unassigned) [Example 8, 2-(3-(3,5-dimethoxybenzamido)cyclohexyl)-N,N-dimethyl-1H-benzo[d]imidazole-5-carboxamides (cis- and trans-isomers)]	–	SMO % inhibition at 2 uM (2 uM test compound): 68%
O=C(N[C@@H]1CCC[C@H](c2nc3ccccc3n2CCO)C1)c1ccc2c(c1)OCCO2 (stereo in doubt) [Example 71, N-{3-[1-(2-hydroxyethyl)-1H-benzimidazol-2-yl]cyclohexyl}-2,3-dihydro-1,4-benzodioxine-6-carboxamide]	–	inhibition at 2 µM [2]: 98%
COc1cc(OC)cc(C(=O)N[C@@H]2CCCC(c3nc4cc(S(C)(=O)=O)ccc4[nH]3)C2)c1 (stereo in doubt) [Example 289, 3,5-dimethoxy-N-{(1R,3S)-3-[5-(methylsulfonyl)-1H-benzimidazol-2-yl]cyclohexyl} benzamide (+)-tartrate]	–	inhibition at 2 µM [2]: 81%
O=C(NC1CCCC(c2nc3ccccc3[nH]2)C1)c1ccc2c(c1)OCCO2 (centres unmarked) [Example 1, N-(3-(1H-benzo[d]midazol-2-yl)cyclohexyl)-2,3-dihydrobenzo[b][1,4]dioxine-6-carboxamide]	107	–
Cn1c([C@H]2CCC[C@@H](NC(=O)c3ccc4c(c3)OCCO4)C2)nc2ccccc21 [Example 3, N-((1R,3S)-3-(1-methyl-1H-benzo[d]imidazol-2-yl)cyclohexyl)-2,3-dihydrobenzo[b][1,4]dioxine-6-carboxamide]	107	–
COc1cc(OC)cc(C(=O)N[C@@H]2CCC[C@H](c3nc4ccc(C(F)(F)F)cc4[nH]3)C2)c1 [Example 4, 3,5-Dimethoxy-N-((1R,3S)-3-[5-(trifluoromethyl)-1H-benzo[d]imidazol-2-yl)cyclohexyl)benzamide]	105	–
COc1cc(OC)cc(C(=O)NC2CCCC(c3nc4ccc(C)cc4[nH]3)C2)c1 (centres unmarked) [Example 5, 3,5-dimethoxy-N-[3-(5-methyl-1H-benzo[d]imidazol-2-yl)cyclohexyl)benzamide]	102	–
CCn1c(C2CCCC(NC(=O)c3ccc4c(c3)OCCO4)C2)nc2ccccc21 (centres unmarked) [Example 6, N-(3-(1-Ethyl-1H-benzo[d]imidazol-2-yl)cyclohexyl)-2,3-dihydrobenzo[b][1,4]dioxine-6-carboxamide]	58	–
CNC(=O)c1ccc2nc([C@H]3CCC[C@@H](NC(=O)c4cc(OC)cc(OC)c4)C3)[nH]c2c1 [Example 7, 2-(3-[3,5-dimethoxybenzamido)cyclohexyl)-N-methyl-1H-benzo[d]imidazole-5-carboxamide]	70	–
COc1cc(OC)cc(C(=O)NC2CCCC(c3nc4cc(NC(C)=O)ccc4[nH]3)C2)c1 (centres unmarked) [Example 9, N-(3-(5-Acetamido-1H-benzo[d]imidazol-2-yl)cyclohexyl)-3,5-dimethoxybenzamide]	87	–
COc1cc(OC)cc(C(=O)NC2CCCC(c3nc4cc(NC(=O)C(C)C)ccc4[nH]3)C2)c1 (centres unmarked) [Example 10, N-(3-(5-Isobutyramido-1H-benzo[d]imidazol-2-yl)cyclohexyl)-3,5-dimethoxybenzamide]	96	–
COc1cc(OC)cc(C(=O)NC2CCCC(c3nc4ccc(NS(C)(=O)=O)cc4[nH]3)C2)c1 (centres unmarked) [Example 11, 3,5-Dimethoxy-N-(3-(5-(methylsulfonamido)-1H-benzo[d]imidazol-2-yl)cyclohexyl)benzamide]	86	–
COc1cc(OC)cc(C(=O)NC2CCCC(c3nc4ccc(NS(=O)(=O)C(C)C)cc4[nH]3)C2)c1 (centres unmarked) [Example 12, 3,5-Dimethoxy-N-(3-(5-(propan-2-ylsulfonamido)-1H-benzo[d]imidazol-2-yl)cyclohexyl)]	62	–
CN(C(=O)c1ccc2c(c1)OCCO2)C1CCCC(c2nc3ccccc3n2C)C1 (centres unmarked) [Example 14, N-Methyl-N-(3-(1-methyl-1H-benzo[d]imidazol-2-yl)cyclohexyl)-2,3-dihydrobenzo[b][1,4]dioxine-6-carboxamide]	95	–
N#CCCn1c(C2CCCC(NC(=O)c3ccc4c(c3)OCCO4)C2)nc2ccccc21 (centres unmarked) [Example 15, N-(3-(1-(2-Cyanoethyl)-1H-benzo[d]imidazol-2-yl)cyclohexyl)-2,3-dihydrobenzo[b][1,4]dioxine-6-carboxamide]	94	–
COCCn1c(C2CCCC(NC(=O)c3ccc4c(c3)OCCO4)C2)nc2ccccc21 (centres unmarked) [Example 16, N-(3-(1-(2-Methoxyethyl)-1H-benzo[d]imidazol-2-yl]cyclohexyl)-2,3-dihydrobenzo[b][1,4]dioxine-6-carboxamide]	59	–
COc1cc(OC)cc(C(=O)NC2CCCC(c3nc4ccc(Br)cc4[nH]3)C2)c1 (centres unmarked) [Example 17, N-(3-(5-Bromo-1H-benzo[d]imidazol-2-yl)cyclohexyl)-3,5-dimethoxybenzamide]	103	–
N#Cc1ccc2nc(C3CCCC(NC(=O)c4ccc5c(c4)OCCO5)C3)[nH]c2c1 (centres unmarked) [Example 19, N-(3-(5-Cyano-1H-benzo[d]imidazol-2-yl)cyclohexyl]-2,3-dihydrobenzo[b][1,4]dioxine-6-carboxamide]	100	–
Cn1c([C@@H]2CCC[C@H](NC(=O)c3ccc4c(c3)OCCO4)C2)nc2ccccc21 [Example 21, N-((1S,3R)-3-(1-Methyl-1H-benzo[d]imidazol-2-yl)cyclohexyl)-2,3-dihydrobenzo[b](1,4]dioxine-6-carboxamide]	71	–
COc1cc(OC)cc(C(=O)NC2CCCC(c3nc4ccc(C(F)(F)F)cc4[nH]3)C2)c1 (centres unmarked) [Example 24, 3,5-Dimethoxy-N-(3-(6-(trifluoromethyl)-1H-benzo[d]imidazol-2-yl]cyclohexyl)benzamide]	105	–
COc1cc(OC)cc(C(=O)NC2CCCC(c3nc4cc(Cl)ccc4[nH]3)C2)c1 (centres unmarked) [Example 25, N-(3-(6-Chloro-1H-benzo[d]imidazol-2-yl)cyclohexyl]-3,5-dimethoxybenzamide]	99	–
COc1cc(OC)cc(C(=O)NC2CCCC(c3nc4ccc(C)cc4n3C)C2)c1 (centres unmarked) [Example 26, N-(3-(1,6-Dimethyl-1H-benzo[d]imidazol-2-yl)cyclohexyl]-3,5-dimethoxybenzamide]	113	–
COc1cc(OC)cc(C(=O)NC2CCCC(c3nc4cc(C)ccc4n3C)C2)c1 (centres unmarked) [Example 27, N-(3-(1,5-Dimethyl-1H-benzo[d]imidazol-2-yl)cyclohexyl]-3,5-dimethoxybenzamide]	84	–
Cc1ccc2[nH]c(C3CCCC(NC(=O)c4ccc5c(c4)OCCO5)C3)nc2c1 (centres unmarked) [Example 28, N-(3-(5-Methyl-1H-benzo[d]imidazol-2-yl)cyclohexyl]-2,3-dihydrobenzo[b][1,4]dioxine-6-carboxamide]	103	–
COc1ccc2[nH]c(C3CCCC(NC(=O)c4ccc5c(c4)OCCO5)C3)nc2c1 (centres unmarked) [Example 29, N-(3-(5-Methoxy-1H-benzo[d]imidazol-2-yl)cyclohexyl]-2,3-dihydrobenzo[b][1,4]dioxine-6-carboxamide]	102	–
CN(C)c1ccc2nc(C3CCCC(NC(=O)c4ccc5c(c4)OCCO5)C3)[nH]c2c1 (centres unmarked) [Example 39]	102	–
COCCNc1ccc(C(=O)N[C@@H]2CCC[C@H](c3nc4ccccc4[nH]3)C2)cn1 [Example 41, N-((1R,3S)-3-(1H-Benzo-[d]imidazol-2-yl)cyclohexyl)-6-(2-methoxyethylamino)nicotinamide]	87	–
COCCNc1cc(C(=O)N[C@@H]2CCC[C@H](c3nc4ccccc4[nH]3)C2)ccn1 [Example 42, N-((1R,3S)-3-(1H-Benzo[d]imidazol-2-yl)cyclohexyl)-2-(2-methoxyethylamino)isonicotinamide]	87	–
